Our source for the IC50 values is ChEMBL document CHEMBL5376026, “Design, synthesis, and antiproliferative evaluation of novel dehydroabietic acid-1,2,3-triazole-oxazolidinone hybrids” (RSC Med Chem, 2024).

Where a name gives a salt, the structure may show the parent alone.

The subject of one data set is HeLa. As to the kind of experiment: Anticancer activity against human HeLa cells assessed as inhibition of cell growth incubated for 48 hrs by MTT assay. In kind it is functional, cell-based.
Another data set relates to HepG2. As to the kind of experiment: Anticancer activity against human HepG2 cells assessed as inhibition of cell growth incubated for 48 hrs by MTT assay. In kind it is functional, cell-based. Conditions: HepG2, 48 h.
The next data set has as its system MGC-803. Description: Anticancer activity against human MGC-803 cells assessed as inhibition of cell growth incubated for 48 hrs by MTT assay. The note with it: MGC-803, 48 h. In kind it is functional, cell-based.
The next data set has as its system T-24. As to the kind of experiment: Anticancer activity against human T-24 cells assessed as inhibition of cell growth incubated for 48 hrs by MTT assay. In kind it is functional, cell-based. Conditions: T-24, 48 h. For orientation: Tetrazolium dyes change colour on reduction, which living cells bring about.
Data set [1] in a line: Cytotoxicity against human LO2 cells assessed as reduction in cell viability incubated for 48 hrs by MTT assay. In kind it is toxicity, cell-based, L02.

For orientation: IC50 means the concentration needed to halve the response being measured. As to `CC(C)c1ccc2c(c1)CC[C@H]1[C@](C)(C(=O)OCc3cn(CC4CN(c5ccc(F)cc5)C(=O)O4)nn3)CCC[C@]21C` (stereo not given in full), the half-inhibitory concentration (IC50) with HeLa is 46.7 µM; in the data set on HepG2 it was 45.8 µM; in the data set with MGC-803, 12.7 µM; in the data set with T-24, 55.1 µM. In data set [1], the IC50 at 48 h worked out at 41.6 µM.

Regarding `CC(C)c1ccc2c(c1)CC[C@H]1[C@](C)(C(=O)OCc3cn(CC4CN(c5cccc(F)c5)C(=O)O4)nn3)CCC[C@]21C` (stereo not given in full), the concentration for half-maximal inhibition (IC50) in the data set with HeLa stood at 32.8 µM; in the data set on HepG2, 24.7 µM; in the data set on MGC-803 it was 25.8 µM; in the data set on T-24, 62.1 µM. The IC50 at 48 h in data set [1] came out at 29.1 µM.

In the case of `CC(C)c1ccc2c(c1)CC[C@H]1[C@](C)(C(=O)OCc3cn(CC4CN(c5ccc(Cl)cc5)C(=O)O4)nn3)CCC[C@]21C` (stereo not given in full), the IC50 with HeLa came to 24.7 µM; in the data set with HepG2, 18.1 µM; in the data set on MGC-803 it was 16.3 µM; with T-24, 36.4 µM. In data set [1], the IC50 at 48 h stood at 24.3 µM.

Take `CC(C)c1ccc2c(c1)CC[C@H]1[C@](C)(C(=O)OCc3cn(CC4CN(c5cccc(Br)c5)C(=O)O4)nn3)CCC[C@]21C` (stereo not given in full): the IC50 in the data set with HeLa came out at 20.5 µM; with HepG2, 12.6 µM; in the data set with MGC-803, 21.6 µM; in the data set with T-24, 42.6 µM. Also, the IC50 at 48 h in data set [1] stood at 47.6 µM.

Consider `CC(C)c1ccc2c(c1)CC[C@H]1[C@](C)(C(=O)OCc3cn(CC4CN(c5ccccc5)C(=O)O4)nn3)CCC[C@]21C` (stereo not given in full), for which the IC50 is 36.1 µM in the data set with HeLa, 18 µM in the data set with HepG2, 12.8 µM in the data set on MGC-803 and > 100 µM in the data set with T-24. For the same molecule, in data set [1], the IC50 at 48 h came to 20.8 µM.

Turning to `COc1cccc2c1C(=O)c1c(O)c3c(c(O)c1C2=O)C[C@@](O)(C(=O)CO)C[C@@H]3O[C@H]1C[C@H](N)[C@H](O)[C@H](C)O1` [DOXORUBICIN HYDROCHLORIDE], the 50% inhibitory concentration (IC50) with HeLa came out at 0.78 µM; in the data set on HepG2 it was 3.43 µM; with MGC-803, 2.4 µM; with T-24, 1.76 µM. Moreover, the IC50 at 48 h in data set [1] was found to be 23.5 µM.

Turning to `Cc1cccc(N2CC(Cn3cc(COC(=O)[C@]4(C)CCC[C@]5(C)c6ccc(C(C)C)cc6CC[C@@H]45)nn3)OC2=O)c1` (stereo not given in full), the half-inhibitory concentration (IC50) was found to be 59.5 µM in the data set on HeLa, 23.5 µM in the data set on HepG2, 24.7 µM with MGC-803 and 44.5 µM in the data set with T-24. The IC50 at 48 h in data set [1] is 51.5 µM.

As to `CC(C)c1ccc2c(c1)CC[C@H]1[C@](C)(C(=O)OCc3cn(CC4CN(c5ccccc5F)C(=O)O4)nn3)CCC[C@]21C` (stereo not given in full), the IC50 is 16.6 µM in the data set on HeLa, 20.2 µM with HepG2, 20.7 µM in the data set on MGC-803 and > 100 µM with T-24. The IC50 at 48 h in data set [1] came out at 48.2 µM.

As for `CC(C)c1ccc2c(c1)CC[C@H]1[C@](C)(C(=O)OCc3cn(CC4CN(c5ccc(N6CCOCC6)c(F)c5)C(=O)O4)nn3)CCC[C@]21C` (stereo not given in full), the IC50 in the data set on HeLa worked out at 36.6 µM; with HepG2 it was 28.7 µM; in the data set with MGC-803, 26.1 µM; in the data set with T-24 it was 63.6 µM. The IC50 at 48 h in data set [1] is > 100 µM.

As to `CC(C)c1ccc2c(c1)CC[C@H]1[C@](C)(C(=O)OCc3cn(CC4CN(c5ccccc5Cl)C(=O)O4)nn3)CCC[C@]21C` (stereo not given in full), the half-maximal inhibitory concentration (IC50) was 14 µM in the data set on HeLa, 13.6 µM in the data set with HepG2, 11 µM with MGC-803 and 70.4 µM with T-24. In addition, the IC50 at 48 h in data set [1] worked out at 21.4 µM.

Take `CC(C)c1ccc2c(c1)CC[C@H]1[C@](C)(C(=O)OCc3cn(CC4CN(c5ccccc5[N+](=O)[O-])C(=O)O4)nn3)CCC[C@]21C` (stereo not given in full): the IC50 was 15 µM in the data set on HeLa, 77.1 µM in the data set on HepG2, 24.5 µM in the data set with MGC-803 and 27.5 µM with T-24. Besides, the half-inhibitory concentration (IC50) at 48 h in data set [1] is 76.4 µM.

Consider `COc1cc(N2CC(Cn3cc(COC(=O)[C@]4(C)CCC[C@]5(C)c6ccc(C(C)C)cc6CC[C@@H]45)nn3)OC2=O)cc(OC)c1OC` (stereo not given in full), for which the IC50 stood at 16.6 µM with HeLa, 32.3 µM in the data set with HepG2, 24.8 µM in the data set on MGC-803 and 12.2 µM in the data set with T-24. Also, the half-maximal inhibitory concentration (IC50) at 48 h in data set [1] is 22.7 µM.

In the case of `CC(C)c1ccc2c(c1)CC[C@H]1[C@](C)(C(=O)OCc3cn(CC4CN(c5cccc(Cl)c5)C(=O)O4)nn3)CCC[C@]21C` (stereo not given in full), the half-maximal inhibitory concentration (IC50) in the data set on HeLa is 6.94 µM; in the data set with HepG2 it was 47.9 µM; in the data set on MGC-803, 17.6 µM; in the data set on T-24 it was > 100 µM. The IC50 at 48 h in data set [1] was 23.9 µM.

In the case of `CC(C)c1ccc2c(c1)CC[C@H]1[C@](C)(C(=O)OCc3cn(CC4CN(c5cccc([N+](=O)[O-])c5)C(=O)O4)nn3)CCC[C@]21C` (stereo not given in full), the IC50 in the data set on HeLa is 30.9 µM; in the data set on HepG2, 13 µM; in the data set on MGC-803, 21.2 µM; in the data set with T-24, > 100 µM. Besides, in data set [1], the IC50 at 48 h is 25.9 µM.

On to `Cc1ccc(N2CC(Cn3cc(COC(=O)[C@]4(C)CCC[C@]5(C)c6ccc(C(C)C)cc6CC[C@@H]45)nn3)OC2=O)cc1` (stereo not given in full), for which the half-inhibitory concentration (IC50) is 2.63 µM with HeLa, 26.8 µM in the data set with HepG2, 11.1 µM in the data set on MGC-803 and > 100 µM in the data set on T-24. Moreover, the half-inhibitory concentration (IC50) at 48 h in data set [1] was found to be 71.7 µM.

As to `CC(C)c1ccc2c(c1)CC[C@H]1[C@](C)(C(=O)OCc3cn(CC4CN(c5ccccc5Br)C(=O)O4)nn3)CCC[C@]21C` (stereo not given in full), the half-maximal inhibitory concentration (IC50) with HeLa was 30.9 µM; in the data set on HepG2, 67.8 µM; in the data set with MGC-803, 6.47 µM; in the data set with T-24, 9.62 µM. Also, in data set [1], the IC50 at 48 h stood at 20.3 µM.

As for `Cc1ccccc1N1CC(Cn2cc(COC(=O)[C@]3(C)CCC[C@]4(C)c5ccc(C(C)C)cc5CC[C@@H]34)nn2)OC1=O` (stereo not given in full), the IC50 amounted to 6.44 µM in the data set with HeLa, 15.6 µM in the data set on HepG2, 12.6 µM with MGC-803 and 17.1 µM with T-24. The IC50 at 48 h in data set [1] is 67.3 µM.

Turning to `CC(C)c1ccc2c(c1)CC[C@H]1[C@](C)(C(=O)OCc3cn(CC4CN(c5ccc(F)c(F)c5)C(=O)O4)nn3)CCC[C@]21C` (stereo not given in full), the 50% inhibitory concentration (IC50) is 9.35 µM with HeLa, 32 µM in the data set on HepG2, 17.4 µM in the data set on MGC-803 and 26.5 µM in the data set with T-24. For the same molecule, in data set [1], the IC50 at 48 h was 23.4 µM.

As to `CC(C)c1ccc2c(c1)CC[C@H]1[C@](C)(C(=O)O)CCC[C@]21C` [DEHYDROABIETIC ACID], the 50% inhibitory concentration (IC50) was 30.4 µM in the data set with HeLa, 80.4 µM in the data set with HepG2, > 100 µM with MGC-803 and > 100 µM in the data set on T-24. For the same molecule, the IC50 at 48 h in data set [1] is > 100 µM.

In the case of `COc1ccc(N2CC(Cn3cc(COC(=O)[C@]4(C)CCC[C@]5(C)c6ccc(C(C)C)cc6CC[C@@H]45)nn3)OC2=O)cc1` (stereo not given in full), the IC50 in the data set with HeLa worked out at 7.76 µM; in the data set with HepG2, 31 µM; in the data set on MGC-803, 7.16 µM; in the data set with T-24, 18.8 µM. The IC50 at 48 h in data set [1] stood at 31.1 µM.

`CC(C)c1ccc2c(c1)CC[C@H]1[C@](C)(C(=O)OCc3cn(CC4CN(c5ccc(N6CCOCC6)cc5)C(=O)O4)nn3)CCC[C@]21C` (stereo not given in full): the IC50 in the data set on HeLa was found to be 21.7 µM; in the data set on HepG2, 23.9 µM; with MGC-803 it was 22.4 µM; with T-24, 70.9 µM. In addition, in data set [1], the IC50 at 48 h worked out at 21.4 µM.
